Source: patent US20160193216A1 (Nimbus Iris, Inc., priority 2012, published 2016)

Each molecule was assayed against T1, IRAK4 (Homo sapiens, UniProt Q9NWZ3) (assay: IRAK-4 activity inhibition assay (Caliper)). Conditions: 37 μM ATP, 3.5 nM IRAK4.
T1 sequence (Q9NWZ3 1-460): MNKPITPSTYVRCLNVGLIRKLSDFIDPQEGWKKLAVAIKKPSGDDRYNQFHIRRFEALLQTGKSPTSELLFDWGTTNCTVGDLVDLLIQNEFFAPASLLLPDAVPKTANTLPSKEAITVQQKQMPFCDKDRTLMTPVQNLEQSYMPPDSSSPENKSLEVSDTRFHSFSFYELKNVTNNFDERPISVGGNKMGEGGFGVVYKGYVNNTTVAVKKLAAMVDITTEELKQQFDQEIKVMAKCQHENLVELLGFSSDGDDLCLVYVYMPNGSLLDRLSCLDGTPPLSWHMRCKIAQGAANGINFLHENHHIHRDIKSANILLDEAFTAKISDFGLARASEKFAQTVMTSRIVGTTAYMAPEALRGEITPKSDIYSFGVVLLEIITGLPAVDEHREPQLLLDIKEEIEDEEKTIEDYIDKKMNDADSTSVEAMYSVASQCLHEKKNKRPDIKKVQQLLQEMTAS
Type: biochemical
Protocol: A 1× kinase base buffer was prepared from 50 mM HEPES, pH 7.5 and 0.0015% Brij-35. A stop buffer was prepared from 100 mM HEPES, pH 7.5, 0.015% Brij-35, 0.2% Coating Reagent #3, and 50 mM EDTA.
Test compound was diluted to 50× of the final desired highest inhibitor concentration in reaction by 100% DMSO. 100 μl of this compound dilution was transferred to a well in a 96-well plate.
Test compound was serially diluted by transferring 30 μl to 60 μl of 100% DMSO in the next well and so forth for a total of 10 concentrations. 100 μl of 100% DMSO was added to two empty wells for no compound control and no enzyme control in the same 96-well plate.
A new 96-well plate was marked as intermediate plate. 5 μl of compound serial dilution was transferred from source plate to the corresponding wells of the intermediate plate. 45 μl of 1× kinase base buffer (KB buffer) was added to each well of the intermediate plate. The intermediate plate was placed for 10 min on a shaker.
5 μl of each well was transferred from the 96-well intermediate plate to a 384-well plate in duplicates. […] A2 of the 96-well plate is transferred to A3 and A4 of the 384-well plate, and so on.
IRAK4 and DTT in 1× kinase base buffer was added.
Assay plate already contained 5 μl of compound in 10% DMSO. Added 10 μl of 2.5× enzyme solution to each well of the 384-well assay plate, except no enzyme control wells. […] Added 10 μl of 1× kinase base buffer to no enzyme control wells in the assay plate. Incubated at room temperature for 10 min.
Added 10 μl of 2.5× peptide solution to each well of the 384-well assay plate. […] Incubated at 28° C. for 40 minutes. Added 25 μl of stop buffer to stop reaction. Collected data on Caliper.
Copied conversion % data from Caliper program. Converted conversion % values to percent inhibition values. Percent inhibition=(max−conversion %)/(max−min)*100, where “max” means the conversion % of DMSO control and “min” means the conversion % of no enzyme control.
The compound numbers correspond to the compound numbers in Table 1. […] “NA” stands for “not assayed.”

Question: For `CC#CCOC[C@H]1CCc2sc3ncnc(O[C@H]4CC[C@H](N(C)C)CC4)c3c21` [Compound I-56, 4-[[(3S)-3-[(but-2-yn-1-yloxy)methyl]-7-thia-9,11-diazatricyclo[6.4.0.0[2,6]]dodeca-1(8),2(6),9,11-tetraen-12-yl]oxy]-N,N-dimethylcyclohexan-1-amine], which IC50 is on record?
Answer: < 5 µM

Question: How did the IC50 turn out when `CN(C)[C@H]1CC[C@H](Oc2ncnc3sc4c(c23)[C@@H](CC(=O)NCC(N)=O)CC4)CC1` [Compound I-58, N-(2-amino-2-oxoethyl)-2-((R)-4-(((1r,4R)-4-(dimethylamino)cyclohexyl)oxy)-6,7-dihydro-5H-cyclopenta[4,5]thieno[2,3-d]pyrimidin-5-yl)acetamide] was run?
Answer: < 5 µM

Question: With `C/C=C/COC[C@H]1CCc2sc3ncnc(O[C@H]4CC[C@H](N(C)C)CC4)c3c21` [Compound I-59, 4-[[(3S)-3-[[(2E)-but-2-en-1-yloxy]methyl]-7-thia-9,11-diazatricyclo[6.4.0.0[2,6]]dodeca-1(8),2(6),9,11-tetraen-12-yl]oxy]-N,N-dimethylcyclohexan-1-amine] as the molecule, how does the IC50 read?
Answer: < 5 µM

Question: `CN(C)[C@H]1CC[C@H](Oc2ncnc3sc4c(c23)[C@@H](CCc2ncco2)CC4)CC1` [Compound I-63, N,N-dimethyl-4-[[(3S)-3-[2-(1,3-oxazol-2-yl)ethyl]-7-thia-9,11-diazatricyclo[6.4.0.0[2,6]]dodeca-1(8),2(6),9,11-tetraen-12-yl]oxy]cyclohexan-1-amine] was tested. Which IC50 did it give?
Answer: < 5 µM

Question: With `CC[C@H](O)C[C@H]1CCc2sc3ncnc(O[C@H]4CC[C@H](N5CCOCC5)CC4)c3c21` [Compound I-64, (S)-1-((R)-4-(((1r,4R)-4-morpholinocyclohexyl)oxy)-6,7-dihydro-5H-cyclopenta[4,5]thieno[2,3-d]pyrimidin-5-yl)butan-2-ol] as the molecule, how does the IC50 read?
Answer: < 5 µM

Question: With `OCC[C@H]1CCc2sc3ncnc(O[C@H]4CC[C@H](N5CCOCC5)CC4)c3c21` [Compound I-66, 2-[(3R)-12-[[4-(morpholin-4-yl)cyclohexyl]oxy]-7-thia-9,11-diazatricyclo[6.4.0.0[2,6]]dodeca-1(12),2(6),8,10-tetraen-3-yl]ethan-1-ol] as the molecule, how does the IC50 read?
Answer: < 5 µM

Question: With `C[C@H](O)C[C@H]1CCc2sc3ncnc(O[C@H]4CC[C@H](N(C)CC(=O)N5CCCC5)CC4)c3c21` [Compound I-69, 2-(((1R,4r)-4-(((R)-5-((S)-2-hydroxypropyl)-6,7-dihydro-5H-cyclopenta[4,5]thieno[2,3-d]pyrimidin-4-yl)oxy)cyclohexyl)(methyl)amino)-1-(pyrrolidin-1-yl)ethanone] as the molecule, how does the IC50 read?
Answer: < 5 µM

Question: `CN(C)[C@H]1CC[C@H](Oc2ncnc3sc4c(c23)[C@@H](C[C@H](O)C(F)(F)F)CC4)CC1` [Compound I-70, (S)-3-((R)-4-(((1r,4R)-4-(dimethylamino)cyclohexyl)oxy)-6,7-dihydro-5H-cyclopenta[4,5]thieno[2,3-d]pyrimidin-5-yl)-1,1,1-trifluoropropan-2-ol] was tested. Which IC50 did it give?
Answer: < 5 µM

Question: `CC[C@H](O)C[C@H]1CCc2sc3ncnc(O[C@H]4CC[C@H](N(C)CC(=O)N5CCCC5)CC4)c3c21` [Compound I-72, 2-(((1R,4r)-4-(((R)-5-((S)-2-hydroxybutyl)-6,7-dihydro-5H-cyclopenta[4,5]thieno[2,3-d]pyrimidin-4-yl)oxy)cyclohexyl)(methyl)amino)-1-(pyrrolidin-1-yl)ethanone] was tested. Which IC50 did it give?
Answer: < 5 µM

Question: How did the IC50 turn out when `CN(C)[C@H]1CC[C@H](Oc2ncnc3sc4c(c23)[C@@H](C[C@H](O)C(N)=O)CC4)CC1` [Compound I-74, (2S)-3-[(3R)-12-[[4-(dimethylamino)cyclohexyl]oxy]-7-thia-9,11-diazatricyclo[6.4.0.0̂[2,6]]dodeca-1(8),2(6),9,11-tetraen-3-yl]-2-hydroxypropanamide] was run?
Answer: < 5 µM

Question: `CN(C)[C@H]1CC[C@H](Oc2ncnc3sc4c(c23)[C@@H](C[C@@H](O)C(N)=O)CC4)CC1` [Compound I-75, (2R)-3-[(3R)-12-[[4-(dimethylamino)cyclohexyl]oxy]-7-thia-9,11-diazatricyclo[6.4.0.0̂[2,6]]dodeca-1(8),2(6),9,11-tetraen-3-yl]-2-hydroxypropanamide] was tested. Which IC50 did it give?
Answer: < 5 µM

Question: `CN(C)[C@H]1CC[C@H](Oc2ncnc3sc4c(c23)[C@@H](COCC(N)=O)CC4)CC1` [Compound I-76, 2-[[(3S)-12-[[4-(dimethylamino)cyclohexyl]oxy]-7-thia-9,11-diazatricyclo[6.4.0.0[2,6]]dodeca-1(8),2(6),9,11-tetraen-3-yl]methoxy]acetamide] was tested. Which IC50 did it give?
Answer: < 5 µM

Question: For `CO[C@@H](C[C@H]1CCc2sc3ncnc(O[C@H]4CC[C@H](N(C)C)CC4)c3c21)C(N)=O` [Compound I-78, (2S)-3-[(3R)-12-[[4-(dimethylamino)cyclohexyl]oxy]-7-thia-9,11-diazatricyclo[6.4.0.0[2,6]]dodeca-1(8),2(6),9,11-tetraen-3-yl]-2-methoxypropanamide], which IC50 is on record?
Answer: < 5 µM

Question: How did the IC50 turn out when `CN[C@H]1CC[C@H](Oc2ncnc3sc4c(c23)[C@@H](C[C@@H](C#N)OC)CC4)CC1` [Compound I-80, (2S)-2-methoxy-3-[(3R)-12-[[4-(methylamino)cyclohexyl]oxy]-7-thia-9,11-diazatricyclo[6.4.0.0[2,6]]dodeca-1(8),2(6),9,11-tetraen-3-yl]propanenitrile] was run?
Answer: < 5 µM

Question: For `CN[C@H]1CC[C@H](Oc2ncnc3sc4c(c23)[C@@H](C[C@H](C#N)OC)CC4)CC1` [Compound I-81, (2R)-2-methoxy-3-[(3R)-12-[[4-(methylamino)cyclohexyl]oxy]-7-thia-9,11-diazatricyclo[6.4.0.0[2,6]]dodeca-1(8),2(6),9,11-tetraen-3-yl]propanenitrile], which IC50 is on record?
Answer: 5 to 20 µM

Question: For `C[C@@H](O)C[C@H]1CCc2sc3ncnc(O[C@H]4CC[C@H](N5CCOCC5)CC4)c3c21` [Compound I-82, (R)-1-((R)-4-(((1r,4R)-4-morpholinocyclohexyl)oxy)-6,7-dihydro-5H-cyclopenta[4,5]thieno[2,3-d]pyrimidin-5-yl)propan-2-ol], which IC50 is on record?
Answer: < 5 µM

Question: Which IC50 does the source give for `NC(=O)CC[C@H]1CCc2sc3ncnc(O[C@H]4CC[C@H](N5CCOCC5)CC4)c3c21` [Compound I-84, 3-((S)-4-(((1r,4S)-4-morpholinocyclohexyl)oxy)-6,7-dihydro-5H-cyclopenta[4,5]thieno[2,3-d]pyrimidin-5-yl)propanamide] here?
Answer: < 5 µM

Question: How did the IC50 turn out when `CN(C)[C@H]1CC[C@H](Oc2ncnc3sc4c(c23)[C@@H](C[C@H](O)C2CCCO2)CC4)CC1` (stereo partly drawn) [Compound I-89, (1S)-2-((R)-4-(((1r,4R)-4-(dimethylamino)cyclohexyl)oxy)-6,7-dihydro-5H-cyclopenta[4,5]thieno[2,3-d]pyrimidin-5-yl)-1-(tetrahydrofuran-2-yl)ethanol] was run?
Answer: < 5 µM

Question: With `CC[C@]1(N(C)C)CC[C@H](Oc2ncnc3sc4c(c23)[C@@H](CCO)CC4)CC1` [Compound I-91, 2-((R)-4-(((1r,4R)-4-(dimethylamino)-4-ethylcyclohexyl)oxy)-6,7-dihydro-5H-cyclopenta[4,5]thieno[2,3-d]pyrimidin-5-yl)ethanol] as the molecule, how does the IC50 read?
Answer: < 5 µM

Question: Which IC50 does the source give for `CC[C@]1(N(C)C)CC[C@H](Oc2ncnc3sc4c(c23)[C@@H](CC(N)=O)CC4)CC1` [Compound I-95, 2-[(3R)-12-[[4-(dimethylamino)-4-ethylcyclohexyl]oxy]-7-thia-9,11-diazatricyclo[6.4.0.0[2,6]]dodeca-1(8),2(6),9,11-tetraen-3-yl]acetamide] here?
Answer: < 5 µM

Question: How did the IC50 turn out when `CN(C)[C@H]1CC[C@H](Oc2ncnc3sc4c(c23)[C@@H](C[C@H](O)c2cc[nH]n2)CC4)CC1` [Compound I-96, (S)-2-((R)-4-(((1r,4R)-4-(dimethylamino)cyclohexyl)oxy)-6,7-dihydro-5H-cyclopenta[4,5]thieno[2,3-d]pyrimidin-5-yl)-1-(1H-pyrazol-3-yl)ethanol] was run?
Answer: < 5 µM

Question: `NC(=O)C[C@H]1CCc2sc3ncnc(N[C@H]4CC[C@H](N5CCOCC5)CC4)c3c21` [Compound I-97, 2-[(3R)-12-[[4-(morpholin-4-yl)cyclohexyl]amino]-7-thia-9,11-diazatricyclo[6.4.0.0̂[2,6]]dodeca-1(12),2(6),8,10-tetraen-3-yl]acetamide] was tested. Which IC50 did it give?
Answer: < 5 µM
